# “And” between values parts separate entries of the source, which are not always exact repeats. Identical values can stand only once.
# How the values were obtained:
# [1] = MTT cytotoxicity assay on non-infected Vero cells; format: cell-based; settings: Chlorocebus sabaeus (African green monkey), non-infected Vero cells (ATCC CCL-81), 72 h incubation
# Excerpt: The Vero cell line (ATCC® CCL-81), derived from the kidney tissue of the Green African monkey (Chlorocebus sabaeus), was utilized as a model of non-infected cells in the cytotoxicity assay. The cells were thawed from stocks maintained in liquid nitrogen at the National Reference Laboratory (NRL) for Toxoplasmosis and cultured in D10 medium—Advanced Dulbecco’s Modified Eagle Medium (DMEM) (Thermo Fisher Scientific, Waltham, MA, USA), supplemented with 10% bovine calf serum (BCS) (Sigma-Aldrich, St. Louis, MO, USA), 1% HEPES buffer (Thermo Fisher Scientific, Waltham, MA, USA), and 1% penicillin-streptomycin (Pen/Strep) solution (Thermo Fisher Scientific, Waltham, MA, USA) in T25 and T75 flasks. Depending on confluency, cells were subcultured 1–2 times per week.
# The MTT colorimetric assay, a widely used method for assessing the cytotoxicity of newly synthesized compounds, was used to evaluate the toxic effect of AADs on non-infected cells. This assay is based on the ability of metabolically active, viable cells to reduce the yellow 3-(4,5-dimethylthiazol-2-yl)-2,5-diphenyltetrazolium bromide (MTT) reagent to purple formazan. The number of viable cells in the well is directly proportional to the intensity of the resulting color. The MTT assay was performed according to the manufacturer’s instructions using the In Vitro Toxicology Assay Kit (MTT-based, Sigma-Aldrich, St. Louis, MO, USA), with a protocol specifically modified to accommodate the cell line and derivatives analyzed in this study.
# In brief, Vero cells were seeded in a 96-well plate, at a density of 25,000 cells per well and incubated for 24 h at 37 °C in a 5% CO2 atmosphere. After the incubation period, the supernatant was removed from each well and replaced with serial dilutions of the analyzed derivatives, as well as with the combination of PYR+SDZ (Sigma-Aldrich, St. Louis, MO, USA) as a positive control. All compounds were investigated in five different concentrations, ranging from 100 μM to 6.25 μM, using a two-fold serial dilution method. The positive control was tested in the range of 0.4 μM + 100 μM to 0.025 μM + 6.25 μM (ratio of PYR+SDZ adjusted according to the literature). In negative control wells, containing only non-infected Vero cells, the discarded supernatant was replaced by a new amount of D10 medium. Blank wells, used to account for any background signal from the colored culture medium, contained only D10 medium. All samples, including controls and blanks, were analyzed in triplicates.
# Samples containing Vero cells with added AADs or the positive control were incubated for 72 h. After incubation, the supernatant was discarded, and a new amount of D10 medium (100 μL) was added to each well. The MTT reagent (10 μL, […]) was subsequently added to each well, and the plates were incubated for an additional four hours. After the incubation period, the supernatant was discarded, and the resulting formazan crystals were dissolved using the solubilizing solution from the In Vitro Toxicology Assay Kit. Absorbance was measured at 540 nm using an ELISA plate reader (Multiskan EX, Thermofisher Scientific, Waltham, MA, USA). Data analysis was conducted, and CC50 values (cytotoxic concentration used to lyse/inhibit average of 50% of cells) were obtained using nonlinear regression in GraphPad Prism 10.4.1 (GraphPad Software Inc., La Jolla, CA, USA).
# [2] = Solubility by visual inspection; format: physicochemical; settings: for Solubility on dilution of DMSO solution in pH 7.4 phosphate buffer: diluted up to 10,000 times in pH 7.4 phosphate buffer; for solubility: organic solvent or mixture, DMSO, tested up to 30 mM, read-out: Solubility in DMSO (clear and transparent solutions)
# Method: Solubility and stability testing was conducted for three of the derivatives, evaluated as potential in vivo testing candidates, namely AAD1, AAD2 and AAD8. Solubility was evaluated using a visual inspection method, checking the clarity and opalescence of different concentrations (up to 30 mM) of dimethyl sulfoxide (DMSO) solutions of the mentioned AADs, as well as of their further dilutions with the pH 7.4 phosphate buffer (100-, 1000- and 10,000-times dilutions).
# [3] = Solution stability by HPLC; format: physicochemical; settings: pH 2 (0.01 M HCl) 2 h; pH 5.5 and pH 7.4 phosphate buffer 4 h
# Method: Solubility and stability testing was conducted for three of the derivatives, evaluated as potential in vivo testing candidates, namely AAD1, AAD2 and AAD8. The stability of the synthesized AADs was evaluated in mediums with three different pH values: 2 (0.01 M HCl), 5.5 (phosphate buffer) and 7.4 (phosphate buffer). Stability was tested by employing a HPLC method, using an Agilent 1200 chromatograph (Agilent Technologies, Palo Alto, CA, USA) and Zorbax Extend C18 column (Agilent Technologies, Palo Alto, CA, USA). The mobile phase consisted of acetonitrile and water (pH was adjusted to 3.2 using phosphoric acid) at a ratio of 30:70 (v/v) for all three AADs. Column temperature was adjusted to 25 °C, while the flow rate was […]. UV detection was performed at 220, 230, 254, 265 and 280 nm. In short, samples (solutions of the investigated AADs in the appropriate mediums) were injected twice into the HPLC column: the first time right after the preparation of the solutions, and the second time after the stability testing interval—two hours for the pH 2 solution and four hours for the pH 5.5 and 7.4 solutions. At the end of the incubation intervals, the decrease in peak areas and occurrence of additional peaks on chromatograms were analyzed in comparison with the chromatograms obtained right after the preparation of the solutions.
# [4] = tested on: T. gondii RH strain tachyzoites; experiment: Anti-T. gondii activity screening (viable tachyzoite count, Trypan blue); format: cell-based, Toxoplasma gondii; settings: 25 µM, 24 h, compared to untreated control
# Method: T. gondii RH strain tachyzoites were obtained from the NRL for Toxoplasmosis, Institute for Medical Research, Belgrade, Serbia, where the RH strain is regularly maintained via passages using female Swiss-Webster mice twice a week (Ethical license no. 323-07-02445/2014-05/1).
# The anti-T. gondii activity of the AADs was evaluated according to previously described methodology, slightly modified by using the DMEM culture medium supplemented with 10% bovine calf serum (BCS) without antibiotics (referred to as modified D10 medium). RH strain T. gondii tachyzoites were harvested from the intraperitoneal exudate of infected mice during routine passage of the strain at the NRL for toxoplasmosis. The sample (intraperitoneal lavage fluid of RH strain-infected mice) was then washed three times using Dulbecco Phosphate Buffered Saline (DPBS) (Thermofisher Scientific, Waltham, MA, USA) and centrifuged at 2.500 rpm for five minutes to obtain a pellet consisting of RH strain tachyzoites only. The pellet was then resuspended, and the parasite count was determined by Trypan blue vital staining, using a Bürker-Türk counting chamber. Tachyzoites were resuspended in an appropriate volume of DMEM culture medium to achieve the required tachyzoite concentration. A suspension of tachyzoites (2 × 10^6 tachyzoites/well, in 100 μL volume) was then seeded into a 96-well microplate and exposed to a 25 µM concentration of 10 AADs, as well as a combination of PYR+SDZ, for 24 h. All samples, including the untreated control consisting of RH strain tachyzoites in a modified D10 culture medium, were tested in triplicates.
# After 24 h, 20 µL of sample was collected from each well, mixed with an equal volume of Trypan blue stain, and the number of viable tachyzoites was determined using a Bürker-Türk counting chamber. The reduction in the number of viable tachyzoites compared to untreated control was calculated using the following formula:(1) Reduction %=100%−(median value of number of viable tachyzoites in test wells/median value of number of viable tachyzoites in control wells×100%)
Solubility on dilution of DMSO solution in pH 7.4 phosphate buffer [2],solubility [2],"Solution stability (HPLC peak area, additional peaks) [3]",Compound,CC50 at 72 h [1],Viability Reduction of T. gondii Tachyzoites [4]
maintaining solubility,≥ 30 mM,stable,Cn1cc(CC(Nc2c3ccccc3nc3ccccc23)C(=O)O)c2ccccc21 (stereo not shown) [AAD2],60.2 µM,–
–,–,–,COC(=O)C(Cc1c[nH]cn1)Nc1c2ccccc2nc2ccccc12 (stereo not shown) [AAD4],134 µM,4.5%
–,–,–,"O=C(O)[C@H](Cc1ccccc1)Nc1c2ccccc2nc2ccccc12 [AAD9, (S) 2-(acridin-9-ylamino)-3-phenylpropanoic acid]",50.2 µM,–
–,–,–,"O=C(O)CCCCCCCNc1c2ccccc2nc2ccccc12 [AAD6, 8-(acridin-9-ylamino) octanoic acid]",154 µM,22.0%
–,–,–,"O=C(O)CCNc1c2ccccc2nc2ccccc12 [AAD10, 3-(acridin-9-ylamino) propanoic acid]",177 µM,21.9%
maintaining solubility,≥ 30 mM,stable,CCOC(=O)CCCCCNc1c2ccccc2nc2ccccc12 [AAD1],41.7 µM,24.7%
–,–,–,"O=C(O)CCCCCNc1c2ccccc2nc2ccccc12 [AAD7, 6-(acridin-9-ylamino) hexanoic acid]",93 µM,20.9% and 20.5%
maintaining solubility,≥ 30 mM,stable,"O=C(O)CCCNc1c2ccccc2nc2ccccc12 [AAD8, 4-(acridin-9-ylamino) butanoic acid]",102 µM,33.3%
–,–,–,COC(=O)CCCCCCCNc1c2ccccc2nc2ccccc12 [AAD3],88.4 µM,15.2%

# Source: publication PMC11944910, “N-(9-Acridinyl) Amino Acid Derivatives: Synthesis and In Vitro Evaluation of Anti-Toxoplasma gondii Activity” (Pharmaceutics, 2025)
